biological target: human recombinant H-PGDS (Homo sapiens, UniProt O60760); experiment: Fluorescence intensity h-PGDS TBA enzyme assay; type: biochemical; conditions: Examples up to 622 (and 3a, 3b)
Sequence (O60760 whole entry): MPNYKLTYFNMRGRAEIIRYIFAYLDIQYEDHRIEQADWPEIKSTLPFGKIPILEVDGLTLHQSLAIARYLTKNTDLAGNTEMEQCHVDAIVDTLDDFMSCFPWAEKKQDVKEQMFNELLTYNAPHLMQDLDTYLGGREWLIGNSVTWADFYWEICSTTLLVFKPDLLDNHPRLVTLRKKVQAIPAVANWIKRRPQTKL

Going from `CCOC(=O)c1cccc(-n2nnnc2N2CCC(NC(=O)c3ccc(-c4cccc(F)c4)nc3)CC2)c1` [Example 98, Ethyl 3-{5-[4-({[6-(3-fluorophenyl)pyridin-3-yl]carbonyl}amino)piperidin-1-yl]-1H-tetrazol-1-yl}benzoate] to `CCOc1cccc(-n2nnnc2N2CCC(NC(=O)c3ccc(-c4cccc(F)c4)nc3)CC2)c1` [Example 103, N-{1-[1-(3-Ethoxyphenyl)-1H-tetrazol-5-yl]piperidin-4-yl}-6-(3-fluorophenyl)nicotinamide], the IC50 falls from 3.7 nM to 2.15 nM (1.7-fold). The second is the more potent here.

`O=C(NC1CCN(c2nnnn2CC2CC2)CC1)c1ccc(-c2cccc(F)c2)nc1` [Example 99, N-{1-[1-(Cyclopropylmethyl)-1H-tetrazol-5-yl]piperidin-4-yl}-6-(3-fluorophenyl)nicotinamide] and `CC(C)OC(=O)Cn1nnnc1N1CCC(NC(=O)c2ccc(-c3cccc(F)c3)nc2)CC1` [Example 100, Isopropyl {5-[4-({[6-(3-fluorophenyl)pyridin-3-yl]carbonyl}amino)piperidin-1-yl]-1H-tetrazol-1-yl}acetate] are within 1.5-fold of each other in IC50: 2.08 nM for the first, 1.53 nM for the second.

Compared with `COCC(C)n1nnnc1N1CCC(NC(=O)c2ccc(-c3cccc(F)c3)nc2)CC1` (stereo not drawn) [Example 101, 6-(3-fluorophenyl)-N-{1-[1-(2-methoxy-1-methylethyl)-1H-tetrazol-5-yl]piperidin-4-yl}nicotinamide], `C[C@H](c1ccccc1)n1nnnc1N1CCC(NC(=O)c2ccc(-c3cccc(F)c3)nc2)CC1` [Example 104, 6-(3-Fluorophenyl)-N-(1-{1-[(1R)-1-phenylethyl]-1H-tetrazol-5-yl}piperidin-4-yl)nicotinamide] is 2.3-fold higher in IC50: 1.4 nM for the first, 3.18 nM for the second.

`N#Cc1ccc(Cn2nnnc2N2CCC(NC(=O)c3ccc(-c4cccc(F)c4)nc3)CC2)cc1` [Example 102, N-{1-[1-(4-Cyanobenzyl)-1H-tetrazol-5-yl]piperidin-4-yl}-6-(3-fluorophenyl)nicotinamide] and `COc1cccc(Cn2nnnc2N2CCC(NC(=O)c3ccc(-c4cccc(F)c4)nc3)CC2)c1` [Example 108, 6-(3-Fluorophenyl)-N-{1-[1-(3-methoxybenzyl)-1H-tetrazol-5-yl}piperidin-4-yl)nicotinamide] are within 1.5-fold of each other in IC50: 0.943 nM for the first, 1.29 nM for the second.

First: O=C(NC1CCN(c2ncnc3c2ncn3CC(F)(F)F)CC1)c1ccc(-c2cccc(F)c2)nc1 [Example 106]
Second: Cn1cnc2c(N3CCC(NC(=O)c4ccc(-c5cccc(F)c5)nc4)CC3)ncnc21 [Example 125, 6-(3-Fluorophenyl)-N-[1-(9-methyl-9H-purin-6-yl)piperidin-4-yl]nicotinamide]
The IC50 of the first is 5-fold higher: 0.873 nM for the first, 0.176 nM for the second. The second is the more potent here.

Going from `O=C(NC1CCN(c2ncnc3c2ncn3CCN2CCCCC2)CC1)c1ccc(-c2cccc(F)c2)nc1` [Example 107, 6-(3-Fluorophenyl)-N-{1-[9-(2-piperidin-1-ylethyl)-9H-purin-6-yl]piperidin-4-yl}nicotinamide] to `O=C(NC1CCN(c2ncnc3c2ncn3C2CCCC2)CC1)c1ccc(-c2cccc(F)c2)nc1` [Example 112, N-[1-(9-Cyclopentyl-9H-purin-6-yl)piperidin-4-yl]-6-(3-fluorophenyl)nicotinamide], the IC50 rises from 0.804 nM to 1.87 nM (2.3-fold). The first is the more potent here.

First: Cn1c(-c2cccc(O)c2)nc2c(N3CCC(NC(=O)c4ccc(-c5cccc(F)c5)nc4)CC3)ncnc21 [Example 109, 6-(3-Fluorophenyl)-N-{1-[8-(3-hydroxyphenyl)-9-methyl-9H-purin-6-yl]piperidin-4-yl}nicotinamide]
Second: CC(C)n1cnc2c(N3CCC(NC(=O)c4ccc(-c5cccc(F)c5)nc4)CC3)ncnc21 [Example 118, 6-(3-Fluorophenyl)-N-[1-(9-isopropyl-9H-purin-6-yl)piperidin-4-yl]nicotinamide]
The IC50 of the first is 3.1-fold higher: 2.74 nM for the first, 0.89 nM for the second.

Compared with `CCC(COC)n1cnc2c(N3CCC(NC(=O)c4ccc(-c5cccc(F)c5)nc4)CC3)ncnc21` (stereo not drawn) [Example 110, 6-(3-Fluorophenyl)-N-(1-{9-[1-(methoxymethyl)propyl]-9H-purin-6-yl}piperidin-4-yl)nicotinamide], `O=C(NC1CCN(c2ncnc3c2ncn3C2CC2)CC1)c1ccc(-c2cccc(F)c2)nc1` [Example 115, N-[1-(9-Cyclopropyl-9H-purin-6-yl)piperidin-4-yl]-6-(3-fluorophenyl)nicotinamide] is 6.7-fold lower in IC50: 1.61 nM for the first, 0.241 nM for the second.

`N#Cc1ccc(C(=O)c2cccnc2N2CCC(NC(=O)c3ccc(-c4cccc(F)c4)nc3)CC2)cc1` [Example 111, N-{1-[3-(4-Cyanobenzoyl)pyridin-2-yl]piperidin-4-yl}-6-(3-fluorophenyl)nicotinamide] and `O=C(NC1CCN(c2ncccc2C(F)(F)F)CC1)c1ccc(-c2cccc(F)c2)nc1` [Example 135, 6-(3-Fluorophenyl)-N-{1-[3-(trifluoromethyl)pyridin-2-yl]piperidin-4-yl}nicotinamide] are within 1.5-fold of each other in IC50: 1.62 nM for the first, 1.47 nM for the second.

Going from `COCCNC(=O)c1ccc(N2CCC(NC(=O)c3ccc(-c4cccc(F)c4)nc3)CC2)nc1` [Example 113, 6-(3-Fluorophenyl)-N-[1-(5-{[(2-methoxyethyl)amino]carbonyl}pyridin-2-yl)piperidin-4-yl]nicotinamide] to `O=C(NC1CCN(c2ccc(Cl)cn2)CC1)c1ccc(-c2cccc(F)c2)nc1` [Example 137, N-[1-(5-Chloropyridin-2-yl)piperidin-4-yl]-6-(3-fluorophenyl)nicotinamide], the IC50 rises from 0.263 nM to 1.41 nM (5.4-fold).

`O=C(NC1CCN(c2ccc(C(=O)N3CCCC3)cn2)CC1)c1ccc(-c2cccc(F)c2)nc1` [Example 114, 6-(3-Fluorophenyl)-N-{1-[5-(pyrrolidin-1-ylcarbonyl)pyridin-2-yl]piperidin-4-yl}nicotinamide] and `Cc1cc(N2CCC(NC(=O)c3ccc(-c4cccc(F)c4)nc3)CC2)nc(N2CCCCC2)n1` [Example 116, 6-(3-Fluorophenyl)-N-[1-(6-methyl-2-piperidin-1-ylpyrimidin-4-yl)piperidin-4-yl]nicotinamide] are within 1.5-fold of each other in IC50: 2.3 nM for the first, 2.56 nM for the second.

`O=C(NC1CCN(c2ncnc3cc(F)ccc23)CC1)c1ccc(-c2cccc(F)c2)nc1` [Example 117, 6-(3-Fluorophenyl)-N-[1-(7-fluoroquinazolin-4-yl)piperidin-4-yl]nicotinamide] and `O=C(NC1CCN(c2ncnc3[nH]ccc23)CC1)c1ccc(-c2cccc(F)c2)nc1` [Example 124, 6-(3-fluorophenyl)-N-[1-(7H-pyrrolo[23-d]pyrimidin-4-yl)piperidin-4-yl]nicotinamide] are within 1.5-fold of each other in IC50: 0.429 nM for the first, 0.345 nM for the second.

Going from `O=C(NC1CCN(c2nccc(-c3ccccc3CCO)n2)CC1)c1ccc(-c2cccc(F)c2)nc1` [Example 119, 6-(3-Fluorophenyl)-N-(1-{4-[2-(2-hydroxyethyl)phenyl]pyrimidin-2-yl}piperidin-4-yl)nicotinamide] to `O=C(NC1CCN(c2nccc(Nc3cc[nH]n3)n2)CC1)c1ccc(-c2cccc(F)c2)nc1` [Example 128, 6-(3-Fluorophenyl)-N-{1-[4-(1H-pyrazol-3-ylamino)pyrimidin-2-yl]piperidin-4-yl}nicotinamide], the IC50 falls from 3.74 nM to 0.687 nM (5.4-fold).

Going from `CCOC(=O)c1cnc(N2CCC(NC(=O)c3ccc(-c4cccc(F)c4)nc3)CC2)cc1N1CCOCC1` [Example 120, Ethyl 6-[4-({[6-(3-fluorophenyl)pyridin-3-yl]carbonyl}amino)piperidin-1-yl]-4-morpholin-4-ylnicotinate] to `Cc1nc(N)cc(N2CCC(NC(=O)c3ccc(-c4cccc(F)c4)nc3)CC2)n1` [Example 133, N-[1-(6-Amino-2-methylpyrimidin-4-yl)piperidin-4-yl]-6-(3-fluorophenyl)nicotinamide], the IC50 falls from 3.49 nM to 0.395 nM (8.8-fold).

`Cc1nc(N2CCC(NC(=O)c3ccc(-c4cccc(F)c4)nc3)CC2)c(C#N)cc1F` [Example 121, N-[1-(3-Cyano-5-fluoro-6-methylpyridin-2-yl)piperidin-4-yl]-6-(3-fluorophenyl)nicotinamide] and `Cc1cnc(C)c(N2CCC(NC(=O)c3ccc(-c4cccc(F)c4)nc3)CC2)n1` [Example 134, N-[1-(3,6-Dimethylpyrazin-2-yl)piperidin-4-yl]-6-(3-fluorophenyl)nicotinamide] are within 1.5-fold of each other in IC50: 1.21 nM for the first, 1.81 nM for the second.

First: COc1ccc2c(N3CCC(NC(=O)c4ccc(-c5cccc(F)c5)nc4)CC3)ncnc2c1OC [Example 122, N-[1-(7,8-Dimethoxyquinazolin-4-yl)piperidin-4-yl]-6-(3-fluorophenyl)nicotinamide]
Second: COc1cc2c(N3CCC(NC(=O)c4ccc(-c5cccc(F)c5)nc4)CC3)ncnc2c(OC)c1OC [Example 123, 6-(3-Fluorophenyl)-N-[1-(678-trimethoxyquinazolin-4-yl)piperidin-4-yl]nicotinamide]
The IC50 of the first is 28-fold lower: 0.168 nM for the first, 4.66 nM for the second. The first is the more potent here.

First: N#Cc1cnc(N2CCC(NC(=O)c3ccc(-c4cccc(F)c4)nc3)CC2)nc1N [Example 126, N-[1-(4-Amino-5-cyanopyrimidin-2-yl)piperidin-4-yl]-6-(3-fluorophenyl)nicotinamide]
Second: O=C(NC1CCN(c2ncc(Br)cn2)CC1)c1ccc(-c2cccc(F)c2)nc1 [Example 127, N-[1-(5-Bromopyrimidin-2-yl)piperidin-4-yl]-6-(3-fluorophenyl)nicotinamide]
The IC50 of the first is 6.1-fold lower: 0.656 nM for the first, 4.01 nM for the second. The first is the more potent here.

Going from `O=C(NC1CCN(c2ncnc3[nH]ncc23)CC1)c1ccc(-c2cccc(F)c2)nc1` [Example 129, 6-(3-Fluorophenyl)-N-[1-(1H-pyrazolo[3,4-d]pyrimidin-4-yl)piperidin-4-yl]nicotinamide] to `Nc1nc(N2CCC(NC(=O)c3ccc(-c4cccc(F)c4)nc3)CC2)c2nc[nH]c2n1` [Example 132, N-[1-(2-Amino-9H-purin-6-yl)piperidin-4-yl]-6-(3-fluorophenyl)nicotinamide], the IC50 falls from 6.24 nM to 0.365 nM (17-fold). The second is the more potent here.

`COc1cc2nc(N3CCC(NC(=O)c4ccc(-c5cccc(F)c5)nc4)CC3)nc(N)c2cc1OC` [Example 130, N-[1-(4-Amino-6,7-dimethoxyquinazolin-2-yl)piperidin-4-yl]-6-(3-fluorophenyl)nicotinamide] and `O=C(NC1CCN(c2nccc(C(F)(F)F)n2)CC1)c1ccc(-c2cccc(F)c2)nc1` [Example 136, 6-(3-Fluorophenyl)-N-{1-[4-(trifluoromethyl)pyrimidin-2-yl]piperidin-4-yl}nicotinamide] are within 1.5-fold of each other in IC50: 4.57 nM for the first, 5.12 nM for the second.

For `Cc1nnc(N2CCC(NC(=O)c3ccc(-c4cccc(F)c4)nc3)CC2)c2ccccc12` [Example 131, 6-(3-Fluorophenyl)-N-[1-(4-methylphthalazin-1-yl)piperidin-4-yl]nicotinamide], the IC50 was 0.463 nM.

— US7902373B2 (Pfizer Inc, priority 2006, dated 2011)
